The results in this text go back to PMC9078972 (RSC Advances, 2018).

Values after ≈ are worked out from the molar mass of the structure shown.

The assay relates to Mycobacterium tuberculosis H37Ra. Briefly: microbe, parasite or virus in culture. Format: cell-based.

Compound `CCCCN1CCN(c2nc(=O)c3cc(C(F)(F)F)cc([N+](=O)[O-])c3s2)CC1=O` [Compound 1d, 2-(4-Butyl-3-oxopiperazin-1-yl)-8-nitro-6-(trifluoromethyl)-4H-benzo[e][1,3]-thiazin-4-one] registered an MIC of 0.034 µM (≈ 0.0146 µg/mL).
